# Reference: ChEMBL document CHEMBL1201861, “Genomics of Drug Sensitity in Cancer screening data, Wellcome Trust Sanger Institute”
# Key:
# Assay in all cases: cells
# Format in all cases: functional, cell-based, Homo sapiens
# COLO-824 = conditions: Homo sapiens, COLO-824
# Description: SANGER: Inhibition of human COLO-824 cell growth in a cell viability assay.
# CTB-1 = conditions: Homo sapiens, CTB-1
# Description: SANGER: Inhibition of human CTB-1 cell growth in a cell viability assay.
# CTV-1 = conditions: Homo sapiens, CTV-1;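 note: growth inhibition of the cell line, read out with a cell viability assay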
# Description: SANGER: Inhibition of human CTV-1 cell growth in a cell viability assay.
# Calu-6 = conditions: Homo sapiens, Calu-6;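 note: growth of human Calu-6 cells, read out by a cell viability assay, IC50 marking inhibition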
# Description: SANGER: Inhibition of human Calu-6 cell growth in a cell viability assay.
# D-263MG = conditions: Homo sapiens, D-263MG
# Description: SANGER: Inhibition of human D-263MG cell growth in a cell viability assay.
# ES6 = conditions: Homo sapiens, ES6;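 note: growth inhibition of human ES6 cells, read out with a cell viability assay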
# Description: SANGER: Inhibition of human ES6 cell growth in a cell viability assay.
# EW-16 = conditions: Homo sapiens, EW-16;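 note: growth inhibition of human EW-16 cells, read out as cell viability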
# Description: SANGER: Inhibition of human EW-16 cell growth in a cell viability assay.
# EOL1 = conditions: Homo sapiens, EOL1;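 note: growth inhibition of EoL-1 cells, read out by a cell viability assay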
# Description: SANGER: Inhibition of human EoL-1-cell cell growth in a cell viability assay.
# HCC1187 = conditions: Homo sapiens, HCC1187;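 note: growth inhibition of HCC1187 cells, read out with a cell viability assay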
# Description: SANGER: Inhibition of human HCC1187 cell growth in a cell viability assay.
# HCC2218 = conditions: Homo sapiens, HCC2218;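 note: cell viability assay read-out, with IC50 given as the concentration that inhibits growth of the cell line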
# Description: SANGER: Inhibition of human HCC2218 cell growth in a cell viability assay.
# HEL = conditions: Homo sapiens, HEL;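 note: growth inhibition of HEL cells, read out with a cell viability assay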
# Description: SANGER: Inhibition of human HEL cell growth in a cell viability assay.
# HT-144 = conditions: Homo sapiens, HT-144
# Description: SANGER: Inhibition of human HT-144 cell growth in a cell viability assay.
# JAR = conditions: Homo sapiens, JAR;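 note: growth inhibition of human JAR cells determined with a cell viability assay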
# Description: SANGER: Inhibition of human JAR cell growth in a cell viability assay.
# KGN = conditions: Homo sapiens, KGN;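 note: growth inhibition of KGN cells, read out with a cell viability assay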
# Description: SANGER: Inhibition of human KGN cell growth in a cell viability assay.
# KM12 = conditions: Homo sapiens, KM12;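 note: KM12 cell growth inhibition, read out with a cell viability assay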
# Description: SANGER: Inhibition of human KM12 cell growth in a cell viability assay.
# KY821 = conditions: Homo sapiens, KY821;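 note: growth inhibition of human KY821 cells, read out by a cell viability assay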
# Description: SANGER: Inhibition of human KY821 cell growth in a cell viability assay.
# LAN-6 = conditions: Homo sapiens, LAN-6;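 note: growth inhibition of LAN-6 cells, determined with a cell viability assay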
# Description: SANGER: Inhibition of human LAN-6 cell growth in a cell viability assay.
# LB2518-MEL = conditions: Homo sapiens, LB2518-MEL;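 note: growth inhibition of human LB2518-MEL cells, measured with a cell viability assay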
# Description: SANGER: Inhibition of human LB2518-MEL cell growth in a cell viability assay.
# LU-134-A = conditions: Homo sapiens, LU-134-A
# Description: SANGER: Inhibition of human LU-134-A cell growth in a cell viability assay.
# LU-139 = conditions: Homo sapiens, LU-139
# Description: SANGER: Inhibition of human LU-139 cell growth in a cell viability assay.
# MFH-ino = conditions: Homo sapiens, MFH-ino;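 note: growth inhibition of human MFH-ino cells, read out by a cell viability assay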
# Description: SANGER: Inhibition of human MFH-ino cell growth in a cell viability assay.
# MS-1 = conditions: Homo sapiens, MS-1;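 note: growth inhibition of MS-1 cells, read out by cell viability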
# Description: SANGER: Inhibition of human MS-1 cell growth in a cell viability assay.
# NCI-H1304 = conditions: Homo sapiens, NCI-H1304;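 note: growth inhibition of the cancer cell line, measured in a cell viability assay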
# Description: SANGER: Inhibition of human NCI-H1304 cell growth in a cell viability assay.
# NCI-H2126 = conditions: Homo sapiens, NCI-H2126;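 note: growth inhibition of the cancer cell line, determined with a cell viability readout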
# Description: SANGER: Inhibition of human NCI-H2126 cell growth in a cell viability assay.
# NCI-H526 = conditions: Homo sapiens, NCI-H526;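 note: growth inhibition of the human NCI-H526 cell line, measured by a cell viability assay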
# Description: SANGER: Inhibition of human NCI-H526 cell growth in a cell viability assay.
# SNU1 = conditions: Homo sapiens, SNU1;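 note: growth inhibition of human NCI-SNU-1 cells, measured with a cell viability assay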
# Description: SANGER: Inhibition of human NCI-SNU-1 cell growth in a cell viability assay.
# SNU-5 = conditions: Homo sapiens, SNU-5;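 note: cell viability readout used to measure growth inhibition in human NCI-SNU-5 cells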
# Description: SANGER: Inhibition of human NCI-SNU-5 cell growth in a cell viability assay.
# NMC-G1 = conditions: Homo sapiens, NMC-G1;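 note: growth inhibition of the NMC-G1 cell line, measured with a cell viability read-out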
# Description: SANGER: Inhibition of human NMC-G1 cell growth in a cell viability assay.
# PSN1 = conditions: Homo sapiens, PSN1;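 note: suppression of growth of human PSN1 cells, read out by a cell viability assay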
# Description: SANGER: Inhibition of human PSN1 cell growth in a cell viability assay.
# RXF 393 = conditions: Homo sapiens, RXF 393;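 note: growth inhibition of human RXF 393 cells, read out with a cell viability assay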
# Description: SANGER: Inhibition of human RXF393 cell growth in a cell viability assay.
# SCH = conditions: Homo sapiens, SCH;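 note: growth inhibition of human SCH cells, read out in a cell viability assay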
# Description: SANGER: Inhibition of human SCH cell growth in a cell viability assay.
# SF-126 = conditions: Homo sapiens, SF-126;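 note: growth inhibition of human SF126 cells, read out with a cell viability assay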
# Description: SANGER: Inhibition of human SF126 cell growth in a cell viability assay.
# SJSA-1 = conditions: Homo sapiens, SJSA-1;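 note: growth inhibition of human SJSA-1 cells, read out through a cell viability measurement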
# Description: SANGER: Inhibition of human SJSA-1 cell growth in a cell viability assay.
# SK-N-FI = conditions: Homo sapiens, SK-N-FI;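 note: cell viability assay measuring growth inhibition of human SK-N-FI cells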
# Description: SANGER: Inhibition of human SK-N-FI cell growth in a cell viability assay.
# SNU-C2B = conditions: Homo sapiens, SNU-C2B;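 note: cell viability readout used to measure compound-driven suppression of SNU-C2B cell proliferation, IC50 marking half-maximal growth inhibition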
# Description: SANGER: Inhibition of human SNU-C2B cell growth in a cell viability assay.
# A388 = conditions: Homo sapiens, A388;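 note: growth inhibition of human A388 cells, read out with a cell viability assay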
# Description: SANGER: Inhibition of human A388 cell growth in a cell viability assay.
# A704 = conditions: Homo sapiens, A704;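 note: growth inhibition of human A704 cells, read out with a cell viability assay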
# Description: SANGER: Inhibition of human A704 cell growth in a cell viability assay.
# ALL-PO = conditions: Homo sapiens, ALL-PO;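 note: growth inhibition of ALL-PO cells, read out by a cell viability assay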
# Description: SANGER: Inhibition of human ALL-PO cell growth in a cell viability assay.
# BT-474 = conditions: Homo sapiens, BT-474
# Description: SANGER: Inhibition of human BT-474 cell growth in a cell viability assay.
# Becker = conditions: Homo sapiens, Becker;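 note: growth inhibition of Becker cells, read out with a cell viability assay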
# Description: SANGER: Inhibition of human Becker cell growth in a cell viability assay.
# C8166 = conditions: Homo sapiens, C8166;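 note: growth inhibition of human C8166 cells measured by a cell viability assay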
# Description: SANGER: Inhibition of human C8166 cell growth in a cell viability assay.
# TE-11 = conditions: Homo sapiens, TE-11;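 note: growth inhibition of human TE-11 cells, read out by a cell viability assay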
# Description: SANGER: Inhibition of human TE-11 cell growth in a cell viability assay.
# TE-6 = conditions: Homo sapiens, TE-6;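 note: growth inhibition of TE-6 cells, read out with a cell viability assay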
# Description: SANGER: Inhibition of human TE-6 cell growth in a cell viability assay.
# VA-ES-BJ = conditions: Homo sapiens, VA-ES-BJ;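 note: growth inhibition of the VA-ES-BJ cell line, read out by a cell viability assay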
# Description: SANGER: Inhibition of human VA-ES-BJ cell growth in a cell viability assay.
# no-11 = conditions: Homo sapiens;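 note: growth inhibition of human NO-11 cells, read out with a cell viability assay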
# Description: SANGER: Inhibition of human no-11 cell growth in a cell viability assay.
# CAS-1 = conditions: Homo sapiens, CAS-1;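 note: growth inhibition of CAS-1 cells, measured with a cell viability assay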
# Description: SANGER: Inhibition of human CAS-1 cell growth in a cell viability assay.
# COLO-320-HSR = conditions: Homo sapiens, COLO-320-HSR;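 note: growth inhibition of COLO-320-HSR cells, determined with a cell viability assay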
# Description: SANGER: Inhibition of human COLO-320-HSR cell growth in a cell viability assay.
compound,measurement,setting,value
CO[C@H]1C[C@@H]2CC[C@@H](C)[C@@](O)(O2)C(=O)C(=O)N2CCCC[C@H]2C(=O)O[C@H]([C@H](C)C[C@@H]2CC[C@@H](OC(=O)C(C)(CO)CO)[C@H](OC)C2)CC(=O)[C@H](C)/C=C(\C)[C@@H](O)[C@@H](OC)C(=O)[C@H](C)C[C@H](C)/C=C/C=C/C=C/1C [TEMSIROLIMUS],IC50,COLO-824,> 200 nM
same,IC50,CTB-1,2.93 nM
same,IC50,CTV-1,> 200 nM
same,IC50,Calu-6,> 200 nM
same,IC50,D-263MG,159 nM
same,IC50,ES6,> 200 nM
same,IC50,EW-16,28.6 nM
same,IC50,EOL1,16.1 nM
same,IC50,HCC1187,> 200 nM
same,IC50,HCC2218,> 200 nM
same,IC50,HEL,158 nM
same,IC50,HT-144,> 200 nM
same,IC50,JAR,> 200 nM
same,IC50,KGN,> 200 nM
same,IC50,KM12,> 200 nM
same,IC50,KY821,> 200 nM
same,IC50,LAN-6,> 200 nM
same,IC50,LB2518-MEL,> 200 nM
same,IC50,LU-134-A,28.9 nM
same,IC50,LU-139,53.3 nM
same,IC50,MFH-ino,> 200 nM
same,IC50,MS-1,> 200 nM
same,IC50,NCI-H1304,> 200 nM
same,IC50,NCI-H2126,58 nM
same,IC50,NCI-H526,61.6 nM
same,IC50,SNU1,4.81 nM
same,IC50,SNU-5,> 200 nM
same,IC50,NMC-G1,> 200 nM
same,IC50,PSN1,> 200 nM
same,IC50,RXF 393,15.7 nM
same,IC50,SCH,> 200 nM
same,IC50,SF-126,22.9 nM
same,IC50,SJSA-1,143 nM
same,IC50,SK-N-FI,> 200 nM
same,IC50,SNU-C2B,> 200 nM
same,IC50,A388,> 200 nM
same,IC50,A704,> 200 nM
same,IC50,ALL-PO,> 200 nM
same,IC50,BT-474,> 200 nM
same,IC50,Becker,79.9 nM
same,IC50,C8166,> 200 nM
same,IC50,TE-11,> 200 nM
same,IC50,TE-6,189 nM
same,IC50,VA-ES-BJ,5.9 nM
same,IC50,no-11,> 200 nM
same,IC50,CAS-1,> 200 nM
same,IC50,COLO-320-HSR,> 200 nM
Nc1cccc2c1CN(C1CCC(=O)NC1=O)C2=O (stereo unspecified) [LENALIDOMIDE],IC50,COLO-824,> 5000 nM
same,IC50,CTB-1,> 5000 nM
same,IC50,CTV-1,> 5000 nM
same,IC50,Calu-6,> 5000 nM
same,IC50,D-263MG,> 5000 nM
same,IC50,ES6,> 5000 nM
same,IC50,EW-16,> 5000 nM
same,IC50,EOL1,4110 nM
same,IC50,HCC1187,> 5000 nM
same,IC50,HCC2218,> 5000 nM
same,IC50,HEL,> 5000 nM
same,IC50,HT-144,> 5000 nM
same,IC50,JAR,2970 nM
same,IC50,KGN,> 5000 nM
same,IC50,KM12,> 5000 nM
same,IC50,KY821,> 5000 nM
same,IC50,LAN-6,> 5000 nM
same,IC50,LB2518-MEL,> 5000 nM
same,IC50,LU-134-A,> 5000 nM
same,IC50,LU-139,> 5000 nM
same,IC50,MFH-ino,> 5000 nM
same,IC50,MS-1,> 5000 nM
same,IC50,NCI-H1304,> 5000 nM
same,IC50,NCI-H2126,> 5000 nM
same,IC50,NCI-H526,> 5000 nM
same,IC50,SNU1,> 5000 nM
same,IC50,SNU-5,> 5000 nM
same,IC50,NMC-G1,> 5000 nM
same,IC50,PSN1,> 5000 nM
same,IC50,RXF 393,> 5000 nM
same,IC50,SCH,> 5000 nM
same,IC50,SF-126,> 5000 nM
same,IC50,SJSA-1,> 5000 nM
same,IC50,SK-N-FI,> 5000 nM
same,IC50,SNU-C2B,> 5000 nM
same,IC50,A388,> 5000 nM
same,IC50,A704,> 5000 nM
same,IC50,ALL-PO,> 5000 nM
same,IC50,BT-474,> 5000 nM
same,IC50,Becker,> 5000 nM
same,IC50,C8166,> 5000 nM
same,IC50,TE-11,> 5000 nM
same,IC50,TE-6,> 5000 nM
same,IC50,VA-ES-BJ,> 5000 nM
same,IC50,no-11,> 5000 nM
same,IC50,CAS-1,> 5000 nM
same,IC50,COLO-320-HSR,> 5000 nM
Cc1cn(-c2cc(NC(=O)c3ccc(C)c(Nc4nccc(-c5cccnc5)n4)c3)cc(C(F)(F)F)c2)cn1 [NILOTINIB],IC50,COLO-824,> 2000 nM
same,IC50,CTB-1,> 2000 nM
same,IC50,CTV-1,> 2000 nM
same,IC50,Calu-6,> 2000 nM
same,IC50,D-263MG,> 2000 nM
same,IC50,ES6,> 2000 nM
same,IC50,EW-16,> 2000 nM
same,IC50,EOL1,< 7.81 nM
same,IC50,HCC1187,> 2000 nM
same,IC50,HCC2218,> 2000 nM
same,IC50,HEL,> 2000 nM
same,IC50,HT-144,> 2000 nM
same,IC50,JAR,> 2000 nM
same,IC50,KGN,> 2000 nM
same,IC50,KM12,> 2000 nM
same,IC50,KY821,> 2000 nM
same,IC50,LAN-6,> 2000 nM
same,IC50,LB2518-MEL,> 2000 nM
same,IC50,LU-134-A,> 2000 nM
same,IC50,LU-139,> 2000 nM
same,IC50,MFH-ino,> 2000 nM
same,IC50,MS-1,> 2000 nM
same,IC50,NCI-H1304,> 2000 nM
same,IC50,NCI-H2126,> 2000 nM
same,IC50,NCI-H526,> 2000 nM
same,IC50,SNU1,> 2000 nM
same,IC50,SNU-5,> 2000 nM
same,IC50,NMC-G1,> 2000 nM
same,IC50,PSN1,> 2000 nM
same,IC50,RXF 393,> 2000 nM
same,IC50,SCH,> 2000 nM
same,IC50,SF-126,> 2000 nM
same,IC50,SJSA-1,> 2000 nM
same,IC50,SK-N-FI,> 2000 nM
same,IC50,SNU-C2B,> 2000 nM
same,IC50,A388,> 2000 nM
same,IC50,A704,> 2000 nM
same,IC50,ALL-PO,> 2000 nM
same,IC50,BT-474,> 2000 nM
same,IC50,Becker,> 2000 nM
same,IC50,C8166,> 2000 nM
same,IC50,TE-11,> 2000 nM
same,IC50,TE-6,> 2000 nM
same,IC50,VA-ES-BJ,> 2000 nM
same,IC50,no-11,> 2000 nM
same,IC50,CAS-1,> 2000 nM
same,IC50,COLO-320-HSR,> 2000 nM
